For 25 compounds, TGI and GI50 results are on record in PubChem BioAssay (NCI).

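Interpolation was linear, between the two tested concentrations surrounding the appropriate level; five concentrations were tested over 48 hours in 96-well plates. GI50 is the concentration that inhibits growth by half. TGI marks complete inhibition of growth.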

Some test systems named below: RXF 393 renal; EKVX NSCLC; SF-295 CNS; HS 578T breast; MDA-MB-231 breast; NCI-H460 lung; ACHN renal; HL-60(TB) leukemia; SN12C renal; SR leukemia.
What all share (experiment): inhibition of tumour cell growth, NCI panel, 48 h

`CC(=O)CCC1(C(=O)OCC(C)C)CCCC1=O` (stereo not given): the TGI in the test on RXF 393 renal, in the test with EKVX NSCLC, in the test with SF-295 CNS, with HS 578T breast, with MDA-MB-231 breast and with NCI-H460 lung was > 100 µM throughout. Also, the TGI with ACHN renal, in the test with HL-60(TB) leukemia and in the test with SN12C renal was > 100 µM throughout.

As to `Cc1cccc2c1nc1n2C(=O)c2ccccc2-1`, the TGI in the test on RXF 393 renal, in the test with SR leukemia, in the test on EKVX NSCLC, with SF-295 CNS, with NCI-H460 lung and in the test with ACHN renal was > 100 µM each time. Also, the TGI in the test on HL-60(TB) leukemia and with SN12C renal was > 100 µM in each case.

On to `CC(=O)c1c(-c2ccc(Cl)cc2)c(C#N)c(=S)n(C2OC(CO)C(O)C(O)C2O)c1C` (stereo not given), for which the TGI was > 100 µM with RXF 393 renal; 87.6 µM with SR leukemia; > 100 µM in the test with SF-295 CNS; > 100 µM in the test with MDA-MB-231 breast; > 100 µM with NCI-H460 lung; > 100 µM with ACHN renal. Further, the TGI is 54 µM in the test with HL-60(TB) leukemia and > 100 µM with SN12C renal.

In the case of `COCOC1CCCC[C@@]1(OCCOCCO[C@@]1(c2ccccc2)CCCC[C@H]1OCOC)c1ccccc1` (stereo not given in full), the TGI with RXF 393 renal, in the test with SR leukemia, in the test on EKVX NSCLC, in the test with SF-295 CNS, in the test on NCI-H460 lung and in the test with ACHN renal was > 100 µM in each case. Besides, the TGI with HL-60(TB) leukemia and in the test on SN12C renal was > 100 µM throughout.

As for `COc1ccc(/C(C=O)=C(\Cl)c2ccc(OC)c(OC)c2)cc1`, the TGI in the test on RXF 393 renal was > 100 µM; with SR leukemia it was 31.7 µM; with EKVX NSCLC, > 100 µM; in the test with SF-295 CNS, > 100 µM; in the test with NCI-H460 lung, > 100 µM; in the test with ACHN renal it was > 100 µM. For the same compound, the TGI with HL-60(TB) leukemia and in the test with SN12C renal was > 100 µM each time.

Turning to `COc1ccc(O[C@H](CO)C[C@@H]2COC(C)(C)O2)cc1`, the TGI in the test on RXF 393 renal, in the test on SR leukemia, with EKVX NSCLC, with SF-295 CNS, with MDA-MB-231 breast and in the test with NCI-H460 lung was > 100 µM each time. Further, the TGI in the test with ACHN renal and in the test on SN12C renal was > 100 µM throughout.

For the compound `NC1CCC2(O)c3ccccc3C2C1` (stereo not given), the TGI in the test on RXF 393 renal, in the test on SR leukemia, with EKVX NSCLC, in the test on SF-295 CNS, in the test on NCI-H460 lung and in the test with ACHN renal was > 100 µM each time. In addition, the TGI in the test with HL-60(TB) leukemia and with SN12C renal was > 100 µM in each case.

Take `C=CCOC(C)(C)C1=CCC(C)CC1` (stereo not given): the TGI with RXF 393 renal, in the test on EKVX NSCLC, with SF-295 CNS, in the test with HS 578T breast, in the test on NCI-H460 lung and with ACHN renal was > 100 µM throughout. In addition, the TGI in the test with HL-60(TB) leukemia and in the test with SN12C renal was > 100 µM in each case.

For the compound `O=C(O)C1CCC(=O)N1C(=O)COc1cc(Cl)c(Cl)cc1Cl` (stereo not given), the TGI in the test with EKVX NSCLC, with SF-295 CNS, with NCI-H460 lung, in the test on ACHN renal and with SN12C renal was > 100 µM throughout.

For the compound `CCOC(=O)C1C(c2ccc(Br)cc2)N(Cc2ccccc2)C(c2ccc(Br)cc2)C(C(=O)OC)S1(=O)=O` (stereo not given), the TGI in the test with RXF 393 renal, with SR leukemia, in the test on EKVX NSCLC, in the test on SF-295 CNS, with NCI-H460 lung and in the test on ACHN renal was > 100 µM in each case. Further, the TGI in the test with HL-60(TB) leukemia and with SN12C renal was > 100 µM in each case.

For `O=c1c2[nH]cnc2n(-c2ccccc2)c(=S)n1-c1ccccc1`, the TGI in the test with RXF 393 renal, in the test on SR leukemia, with EKVX NSCLC, with SF-295 CNS, with MDA-MB-231 breast and in the test on NCI-H460 lung was > 100 µM throughout. The TGI with ACHN renal, in the test with HL-60(TB) leukemia and in the test with SN12C renal was > 100 µM in each case.

Regarding `O=[N+]([O-])/C=C/c1cc(Cl)c(/C=C/[N+](=O)[O-])cc1Cl`, the TGI in the test with RXF 393 renal was 3.14 µM; in the test on EKVX NSCLC it was 5.02 µM; in the test with SF-295 CNS, 25 µM; in the test with HS 578T breast, 8.25 µM; with NCI-H460 lung, 52.9 µM; in the test with ACHN renal it was 2.97 µM.

As for `CC(C)(C)C(=O)c1c(O)c2ccccc2c2ccccc2c1=O`, the TGI with EKVX NSCLC, with SF-295 CNS, in the test with HS 578T breast, with MDA-MB-231 breast, in the test on NCI-H460 lung and in the test on ACHN renal was > 100 µM in each case. Further, the TGI in the test with HL-60(TB) leukemia and in the test on SN12C renal was > 100 µM throughout.

Turning to `Cc1ccc(S(=O)(=O)NC(=O)Nc2ccc(C(=O)O)cc2)cc1`, the TGI in the test on RXF 393 renal, in the test with SF-295 CNS, in the test with HS 578T breast, in the test on MDA-MB-231 breast, with NCI-H460 lung and in the test on ACHN renal was > 100 µM in each case. Besides, the TGI with HL-60(TB) leukemia and in the test with SN12C renal was > 100 µM each time.

As to `CCOC(=O)C(Cc1ccc(N=NN(C)C)cc1)NC(=O)CC1c2ccccc2-c2ccccc21` (stereo not given), the TGI with SR leukemia, in the test on EKVX NSCLC, in the test on SF-295 CNS, in the test on NCI-H460 lung, in the test on ACHN renal and in the test on HL-60(TB) leukemia was > 100 µM in each case. Also, the TGI in the test with SN12C renal was > 100 µM.

On to `COC(=O)Nc1cc(OCCCOC(C)=O)c2[nH]c(C(=O)OC)cc2c1C[C@H](O)CO`, for which the TGI in the test on SR leukemia, in the test with EKVX NSCLC, with SF-295 CNS, in the test with MDA-MB-231 breast, in the test with ACHN renal and with HL-60(TB) leukemia was > 100 µM throughout. Moreover, the TGI with SN12C renal is > 100 µM.

In the case of `CC(=O)O[C@H]1CC[C@@H](OC(C)=O)[C@H]2[C@H](O)[C@H](O)[C@@H]1n1c(=O)n(-c3ccccc3)c(=O)n12`, the TGI with RXF 393 renal, with EKVX NSCLC, with SF-295 CNS, in the test on HS 578T breast, in the test with MDA-MB-231 breast and with ACHN renal was > 100 µM in each case. The TGI in the test on HL-60(TB) leukemia and in the test on SN12C renal was > 100 µM each time.

`NCCCNc1nc2ccccc2c2c(=O)c3cc(Cl)ccc3sc12`: the GI50 in the test on HS 578T breast was 2.01 µM; in the test with MDA-MB-231 breast, 1.34 µM; in the test on ACHN renal, 1.57 µM; with SN12C renal it was 1.63 µM. Moreover, the TGI with HS 578T breast turned out to be 5.24 µM; with MDA-MB-231 breast it was 2.69 µM; in the test on ACHN renal it was 2.92 µM; with SN12C renal, 3.07 µM.

With `Cc1nc(C(=Nc2ccc(Br)cc2)Nn2cnnc2)no1`, the TGI in the test on RXF 393 renal, in the test on EKVX NSCLC, in the test on SF-295 CNS, in the test with HS 578T breast, with MDA-MB-231 breast and in the test on NCI-H460 lung was > 100 µM throughout. Also, in the test on ACHN renal, the TGI was > 100 µM.

For the compound `Cc1cc(-c2ccc(N=Nc3ccc4c(S(=O)(=O)O)cc(S(=O)(=O)O)c(N)c4c3O)c(C)c2)ccc1N=Nc1ccc2c(S(=O)(=O)O)cc(S(=O)(=O)O)c(N)c2c1O`, the TGI in the test with RXF 393 renal, in the test on EKVX NSCLC, in the test on SF-295 CNS, in the test with NCI-H460 lung, in the test with HL-60(TB) leukemia and in the test on SN12C renal was > 100 µM throughout.

As to `C/C(CCN(C)C)=N/O`, the TGI with RXF 393 renal is 15.7 µM; in the test on SR leukemia, 5.67 µM; in the test on EKVX NSCLC it was 28.8 µM; with SF-295 CNS, 81.5 µM; with NCI-H460 lung, 58.5 µM; in the test on ACHN renal, 22.3 µM. The TGI with HL-60(TB) leukemia amounted to 13.5 µM; in the test on SN12C renal, 27.3 µM.

Take `Cc1ccc(S(=O)(=O)OCCN(CCOS(=O)(=O)c2ccc(C)cc2)c2ccc(C=O)cc2)cc1`: the TGI is 33.2 µM in the test on RXF 393 renal; 91 µM with EKVX NSCLC; > 100 µM in the test with SF-295 CNS; > 100 µM in the test with HS 578T breast; > 100 µM in the test with MDA-MB-231 breast; 48.6 µM in the test on NCI-H460 lung. Further, the TGI with ACHN renal and in the test with HL-60(TB) leukemia was > 100 µM each time.

`CC(C)C(NCc1c2ccccc2[n+](C)c2ccccc12)C(=O)O` (stereo not given): the TGI was 12.5 µM with RXF 393 renal; 24.2 µM with EKVX NSCLC; 20.5 µM in the test with SF-295 CNS; 29.1 µM in the test with NCI-H460 lung; 16.4 µM in the test with ACHN renal; > 21 µM with HL-60(TB) leukemia. For the same compound, the TGI in the test on SN12C renal stood at 18 µM.

Consider `CN1C(c2ccccc2)CC(O)CC1c1ccccc1` (stereo not given), for which the TGI with RXF 393 renal, in the test on SR leukemia, with EKVX NSCLC, in the test on SF-295 CNS, in the test on NCI-H460 lung and in the test with ACHN renal was > 100 µM in each case. Further, the TGI in the test on HL-60(TB) leukemia and in the test with SN12C renal was > 100 µM throughout.

`CCOC(=O)CNC(=O)c1[nH]cnc1/N=N/N(C)C`: the TGI in the test on SR leukemia, in the test with EKVX NSCLC, in the test with SF-295 CNS, in the test on NCI-H460 lung, in the test on ACHN renal and in the test with HL-60(TB) leukemia was > 100 µM in each case. Moreover, the TGI in the test with SN12C renal was > 100 µM.
